Measured values taken from the supplement of paper PMC10307832.

Columns and labels:
Experiment in all cases: relative viability (nuclei count vs DMSO), 5 days (fraction); higher = more cells survive
COR-L23 = tested on: COR-L23
Method in brief: (§1)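 After 5 days of treatment, lung cancer cells in 1536-well plates were fixed and stained in a single step (final 0.05% Triton X-100, 1% formaldehyde, 1 ug/ml Hoechst) and their nuclei counted on 4× images. Treatment had been applied by pin tool the day after seeding as one drug alone or as a fixed anchor-drug dose with five library-drug doses (not always all listed) in √10 steps. Relative viability is the nuclei count of treated wells divided by that of vehicle wells, and values are medians of duplicate plates.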

ChaGo-K-1 = tested on: ChaGo-K-1
Method in brief: as §1

EMC-BAC-2 = tested on: EMC-BAC-2
Method in brief: as §1

EPLC-272H = tested on: EPLC-272H
Method in brief: as §1

H3255 = tested on: H3255
Method in brief: as §1

HCC-44 = tested on: HCC-44
Method in brief: as §1

HCC-827 = tested on: HCC-827
Method in brief: as §1

LCLC-103H = tested on: LCLC-103H
Method in brief: as §1

LU99A = tested on: LU99A
Method in brief: as §1

NCI-H1395 = tested on: NCI-H1395
Method in brief: as §1

NCI-H1563 = tested on: NCI-H1563
Method in brief: as §1

NCI-H1651 = tested on: NCI-H1651
Method in brief: as §1

NCI-H1793 = tested on: NCI-H1793
Method in brief: as §1

NCI-H1944 = tested on: NCI-H1944
Method in brief: as §1

NCI-H2023 = tested on: NCI-H2023
Method in brief: as §1

NCI-H2085 = tested on: NCI-H2085
Method in brief: as §1

NCI-H2087 = tested on: NCI-H2087
Method in brief: as §1

NCI-H2405 = tested on: NCI-H2405
Method in brief: as §1

NCI-H520 = tested on: NCI-H520
Method in brief: as §1

NCI-H650 = tested on: NCI-H650
Method in brief: as §1

NCI-H838 = tested on: NCI-H838
Method in brief: as §1

SK-MES-1 = tested on: SK-MES-1
Method in brief: as §1

Compound: CC(=O)O[C@@]12CO[C@@H]1C[C@H](O)[C@@]1(C)C(=O)[C@H](O)C3=C(C)[C@@H](OC(=O)[C@H](O)[C@@H](NC(=O)OC(C)(C)C)c4ccccc4)C[C@@](O)([C@@H](OC(=O)c4ccccc4)[C@H]21)C3(C)C [Docetaxel] + CCNC(=O)c1noc(-c2cc(C(C)C)c(O)cc2O)c1-c1ccc(CN2CCOCC2)cc1 [Luminespib] (partner 0.01 µM)
- relative viability (COR-L23; first compound 0.0002 µM): 0.632
- relative viability (COR-L23; first compound 0.000632 µM): 0.622
- relative viability (COR-L23; first compound 0.002 µM): 0.131
- relative viability (COR-L23; first compound 0.006325 µM): 0.128
- relative viability (COR-L23; first compound 0.02 µM): 0.101
- relative viability (ChaGo-K-1; first compound 0.0002 µM): 0.528
- relative viability (ChaGo-K-1; first compound 0.000632 µM): 0.468
- relative viability (ChaGo-K-1; first compound 0.002 µM): 0.251
- relative viability (ChaGo-K-1; first compound 0.006325 µM): 0.228
- relative viability (EMC-BAC-2; first compound 0.0002 µM): 1.15
- relative viability (EMC-BAC-2; first compound 0.000632 µM): 1.08
- relative viability (EMC-BAC-2; first compound 0.002 µM): 0.385
- relative viability (EMC-BAC-2; first compound 0.006325 µM): 0.368
- relative viability (EMC-BAC-2; first compound 0.02 µM): 0.238
- relative viability (EPLC-272H; first compound 0.0002 µM): 0.133
- relative viability (EPLC-272H; first compound 0.000632 µM): 0.316
- relative viability (EPLC-272H; first compound 0.002 µM): 0.205
- relative viability (EPLC-272H; first compound 0.006325 µM): 0.0836
- relative viability (EPLC-272H; first compound 0.02 µM): 0.119
- relative viability (H3255; first compound 0.0002 µM): 0.907
- relative viability (H3255; first compound 0.000632 µM): 1.12
- relative viability (H3255; first compound 0.002 µM): 0.755
- relative viability (H3255; first compound 0.006325 µM): 0.157
- relative viability (H3255; first compound 0.02 µM): 0.309
- relative viability (HCC-44; first compound 0.0002 µM): 0.986
- relative viability (HCC-44; first compound 0.000632 µM): 0.901
- relative viability (HCC-44; first compound 0.002 µM): 0.35
- relative viability (HCC-44; first compound 0.006325 µM): 0.289
- relative viability (HCC-44; first compound 0.02 µM): 0.171
- relative viability (HCC-827; first compound 0.0002 µM): 0.588
- relative viability (HCC-827; first compound 0.000632 µM): 0.67
- relative viability (HCC-827; first compound 0.002 µM): 0.244
- relative viability (HCC-827; first compound 0.006325 µM): 0.159
- relative viability (HCC-827; first compound 0.02 µM): 0.142
- relative viability (LCLC-103H; first compound 0.0002 µM): 0.885
- relative viability (LCLC-103H; first compound 0.000632 µM): 0.835
- relative viability (LCLC-103H; first compound 0.002 µM): 0.498
- relative viability (LCLC-103H; first compound 0.006325 µM): 0.443
- relative viability (LCLC-103H; first compound 0.02 µM): 0.218
- relative viability (LU99A; first compound 0.0002 µM): 0.218
- relative viability (LU99A; first compound 0.000632 µM): 0.245
- relative viability (LU99A; first compound 0.002 µM): 0.23
- relative viability (LU99A; first compound 0.006325 µM): 0.193
- relative viability (LU99A; first compound 0.02 µM): 0.2
- relative viability (NCI-H1395; first compound 0.0002 µM): 0.699
- relative viability (NCI-H1395; first compound 0.000632 µM): 0.771
- relative viability (NCI-H1395; first compound 0.002 µM): 0.496
- relative viability (NCI-H1395; first compound 0.006325 µM): 0.391
- relative viability (NCI-H1395; first compound 0.02 µM): 0.286
- relative viability (NCI-H1563; first compound 0.0002 µM): 0.518
- relative viability (NCI-H1563; first compound 0.000632 µM): 0.522
- relative viability (NCI-H1563; first compound 0.002 µM): 0.515
- relative viability (NCI-H1563; first compound 0.006325 µM): 0.457
- relative viability (NCI-H1563; first compound 0.02 µM): 0.408
- relative viability (NCI-H1651; first compound 0.0002 µM): 0.821
- relative viability (NCI-H1651; first compound 0.000632 µM): 0.842
- relative viability (NCI-H1651; first compound 0.002 µM): 0.258
- relative viability (NCI-H1651; first compound 0.006325 µM): 0.27
- relative viability (NCI-H1651; first compound 0.02 µM): 0.12
- relative viability (NCI-H1793; first compound 0.0002 µM): 0.174
- relative viability (NCI-H1793; first compound 0.002 µM): 0.238
- relative viability (NCI-H1793; first compound 0.006325 µM): 0.177
- relative viability (NCI-H1793; first compound 0.02 µM): 0.134
- relative viability (NCI-H1944; first compound 0.0002 µM): 0.724
- relative viability (NCI-H1944; first compound 0.000632 µM): 0.723
- relative viability (NCI-H1944; first compound 0.002 µM): 0.635
- relative viability (NCI-H1944; first compound 0.006325 µM): 0.249
- relative viability (NCI-H1944; first compound 0.02 µM): 0.114
- relative viability (NCI-H2023; first compound 0.0002 µM): 0.682
- relative viability (NCI-H2023; first compound 0.000632 µM): 0.346
- relative viability (NCI-H2023; first compound 0.002 µM): 0.113
- relative viability (NCI-H2023; first compound 0.006325 µM): 0.105
- relative viability (NCI-H2023; first compound 0.02 µM): 0.0645
- relative viability (NCI-H2085; first compound 0.0002 µM): 0.378
- relative viability (NCI-H2085; first compound 0.000632 µM): 0.454
- relative viability (NCI-H2085; first compound 0.002 µM): 0.446
- relative viability (NCI-H2085; first compound 0.006325 µM): 0.322
- relative viability (NCI-H2085; first compound 0.02 µM): 0.341
- relative viability (NCI-H2087; first compound 0.0002 µM): 0.166
- relative viability (NCI-H2087; first compound 0.000632 µM): 0.189
- relative viability (NCI-H2087; first compound 0.002 µM): 0.147
- relative viability (NCI-H2087; first compound 0.006325 µM): 0.168
- relative viability (NCI-H2087; first compound 0.02 µM): 0.124
- relative viability (NCI-H2405; first compound 0.0002 µM): 0.607
- relative viability (NCI-H2405; first compound 0.000632 µM): 0.603
- relative viability (NCI-H2405; first compound 0.002 µM): 0.486
- relative viability (NCI-H2405; first compound 0.006325 µM): 0.33
- relative viability (NCI-H2405; first compound 0.02 µM): 0.22
- relative viability (NCI-H520; first compound 0.000632 µM): 0.23
- relative viability (NCI-H520; first compound 0.002 µM): 0.233
- relative viability (NCI-H520; first compound 0.006325 µM): 0.259
- relative viability (NCI-H520; first compound 0.02 µM): 0.207
- relative viability (NCI-H650; first compound 0.0002 µM): 0.796
- relative viability (NCI-H650; first compound 0.000632 µM): 0.519
- relative viability (NCI-H650; first compound 0.002 µM): 0.212
- relative viability (NCI-H650; first compound 0.006325 µM): 0.18
- relative viability (NCI-H650; first compound 0.02 µM): 0.111
- relative viability (NCI-H838; first compound 0.0002 µM): 0.389
- relative viability (NCI-H838; first compound 0.000632 µM): 0.3
- relative viability (NCI-H838; first compound 0.002 µM): 0.138
- relative viability (NCI-H838; first compound 0.006325 µM): 0.147
- relative viability (NCI-H838; first compound 0.02 µM): 0.112
- relative viability (SK-MES-1; first compound 0.0002 µM): 0.695
- relative viability (SK-MES-1; first compound 0.000632 µM): 0.618
- relative viability (SK-MES-1; first compound 0.002 µM): 0.267
- relative viability (SK-MES-1; first compound 0.02 µM): 0.163
